# Results as given in PubChem BioAssay AID504344 (Broad Institute, 2011).
# Active and inactive are the calls of the source.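 How the source made its calls: active means fitted curve reaches 10% of the positive control caspase activation at or below the top valid tested dose; inactive means signal shifts the opposite way, plus the rest.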
# How the values were obtained:
# [1] = caspase signal in Bax/Bak-deficient fibroblasts – cell-based, mouse embryonic fibroblasts, dry powder, set 2, counter-screen for Bcl2-A1 inhibitor project, dose response (AID 504344); conditions: Bax/Bak-/- MEF caspase activation, CaspaseGlo luminescence, 3 h; at 35 µM (top of the series)
# [2] = test system: Bax/Bak-/- MEF caspase activation, CaspaseGlo luminescence, 3 h; experiment: as above
SMILES,caspase activation [1],AC10 [2]
O=c1oc2ccccc2c(Nc2cc(Cl)cc(Cl)c2)c1[N+](=O)[O-],-0.079% (inactive),
CCOC(=O)N1CCN(c2c([N+](=O)[O-])c(=O)n(C)c3ccccc23)CC1,-0.062% (inactive),
O=[N+]([O-])c1cnc2ccccc2c1Sc1ccccc1,2.51% (inactive),
Cc1ccc(Sc2c([N+](=O)[O-])c(=O)oc3ccccc23)cc1,,> 35 µM (inactive)
Cc1ccc(Sc2cc(=O)n(C)c3ccccc23)cc1,-0.817% (inactive),
Cc1ccc(Sc2c([N+](=O)[O-])cnc3ccccc23)cc1,3.45% (inactive),
CCOCCCNc1c([N+](=O)[O-])c(=O)n(C)c2ccccc12,0.166% (inactive),
O=c1oc2ccccc2c(N2CCCCC2)c1[N+](=O)[O-],-0.245% (inactive),
Cc1ccc(Nc2c([N+](=O)[O-])c(=O)n(C)c3ccccc23)cc1,0.3% (inactive),
Cn1c(=O)c([N+](=O)[O-])c(Nc2ccc(Cl)cc2)c2ccccc21,0.654% (inactive),
CN1C(=O)C(C)(C)N(Cc2ccccc2)c2ccccc21,-0.187% (inactive),
Cn1c(=O)c([N+](=O)[O-])c(-n2cnc3ccccc32)c2ccccc21,0.662% (inactive),
CCSc1c([N+](=O)[O-])c(=O)oc2ccccc12,0.365% (inactive),
Cn1c(=O)c([N+](=O)[O-])c(Oc2ccccc2)c2ccccc21,0.272% (inactive),
O=c1oc2ccccc2c(Cl)c1[N+](=O)[O-],-0.981% (inactive),
Cc1ccc(Nc2c([N+](=O)[O-])c(=O)oc3ccccc23)cc1,-0.021% (inactive),
O=C(Oc1cccc(/C=N/Nc2nc(Nc3ccccc3)nc(N3CCOCC3)n2)c1)c1ccco1,0.026% (inactive),
C/C1=C/C(=O)O[C@@H]2C[C@@H](CC[C@H](C)/C=C\CC1)O[C@@](O)(C1CSC(=O)N1)C2 (stereo partly specified),0.173% (inactive),
O=c1oc2ccccc2c(Sc2ccccc2)c1[N+](=O)[O-],-0.438% (inactive),
Cn1c(=O)c([N+](=O)[O-])c(Cl)c2ccccc21,0.515% (inactive),
Cc1ccc(Sc2c([N+](=O)[O-])c(=O)n(C)c3ccccc23)cc1,1.18% (inactive),
